Holding throughout (format): biochemical
Experiment [1] addresses T1, Group IVA cPLA2 (GIVA PLA2) (Homo sapiens, UniProt P47712).
T1 sequence (P47712 1-749): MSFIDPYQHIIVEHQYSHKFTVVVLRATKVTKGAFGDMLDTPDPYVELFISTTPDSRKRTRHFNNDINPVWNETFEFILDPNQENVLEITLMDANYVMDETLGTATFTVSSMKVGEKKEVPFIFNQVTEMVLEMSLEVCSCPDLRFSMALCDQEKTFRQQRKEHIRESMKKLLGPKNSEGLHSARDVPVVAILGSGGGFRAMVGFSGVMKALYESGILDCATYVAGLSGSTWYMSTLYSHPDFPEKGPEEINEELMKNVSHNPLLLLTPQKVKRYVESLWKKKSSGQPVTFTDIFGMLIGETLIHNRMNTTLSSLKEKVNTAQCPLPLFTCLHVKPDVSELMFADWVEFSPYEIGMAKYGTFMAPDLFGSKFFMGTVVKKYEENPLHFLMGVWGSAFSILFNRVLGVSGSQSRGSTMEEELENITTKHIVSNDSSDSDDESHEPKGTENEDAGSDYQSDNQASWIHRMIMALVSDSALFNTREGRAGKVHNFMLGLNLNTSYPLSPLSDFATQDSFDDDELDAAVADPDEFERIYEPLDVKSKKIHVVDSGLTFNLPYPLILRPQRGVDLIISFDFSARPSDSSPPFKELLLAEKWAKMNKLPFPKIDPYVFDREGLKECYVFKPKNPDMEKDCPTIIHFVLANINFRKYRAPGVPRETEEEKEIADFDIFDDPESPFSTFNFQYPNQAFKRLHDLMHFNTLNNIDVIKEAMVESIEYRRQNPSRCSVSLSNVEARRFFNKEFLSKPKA
Nature of the experiment: In vitro Group IVA cPLA2 mixed micelle assay. As to conditions: for inhibition at 0.091 mole fraction: read-out: cPLA2 inh, percent inhibition (converted); for cPLA2 inh, XI(50): Table 3; for Inhibition of GIVA PLA2: at highest dose. As for the experimental part:
(§1) Numerous 2-oxoamides were tested for inhibition of PLA2s in in vitro assay systems. The data, summarized in Tables 1a, 1b and 2 are represented as XI(50) values unless otherwise noted. XI(50) is defined as the inhibitor concentration that produced 50% inhibition. XI(50) is used as opposed to the more common IC50 because GIVA and GVIA PLA2 are active at a two-dimensional lipid interface rather than in three-dimensional solution. (Deems, Anal. Biochem., 287:1-16, 2000). The 2-oxoamide inhibitors likely partition to the micelle interface and therefore must be represented as a percentage of surface concentration (mole fraction) as opposed to bulk concentration (molar units). (Kokotos, et al., J. Med. Chem., 45:2891-2893, 2002).
(§2) In vitro Group IV cPLA2 and Group VI iPLA2 assays were done as previously described (Kokotos, et al., supra, 2002). Briefly, 100 μM lipid substrate and 100,000 cpm radiolabeled analog were dried down under N2 and dissolved in assay buffer containing 400 μM Triton X-100 to yield a mixed micelle substrate solution. Inhibitors dissolved in DMSO were added to the reaction tubes and allowed to incubate with substrate for five minutes at 40° C. Pure enzyme was added to yield a final volume of 500 μl, and digestion was carried out at 40° C. for 30 minutes. Reactions were quenched and extracted using the Dole method and products were quantified by liquid scintillation counting. Percent inhibition was determined at a range of inhibitor mole fraction concentrations for XI(50) calculations.

In experiment [2] the target is T2, Group VIA iPLA2 (GVIA PLA2) (Homo sapiens, UniProt O60733).
T2 sequence (O60733 1-806): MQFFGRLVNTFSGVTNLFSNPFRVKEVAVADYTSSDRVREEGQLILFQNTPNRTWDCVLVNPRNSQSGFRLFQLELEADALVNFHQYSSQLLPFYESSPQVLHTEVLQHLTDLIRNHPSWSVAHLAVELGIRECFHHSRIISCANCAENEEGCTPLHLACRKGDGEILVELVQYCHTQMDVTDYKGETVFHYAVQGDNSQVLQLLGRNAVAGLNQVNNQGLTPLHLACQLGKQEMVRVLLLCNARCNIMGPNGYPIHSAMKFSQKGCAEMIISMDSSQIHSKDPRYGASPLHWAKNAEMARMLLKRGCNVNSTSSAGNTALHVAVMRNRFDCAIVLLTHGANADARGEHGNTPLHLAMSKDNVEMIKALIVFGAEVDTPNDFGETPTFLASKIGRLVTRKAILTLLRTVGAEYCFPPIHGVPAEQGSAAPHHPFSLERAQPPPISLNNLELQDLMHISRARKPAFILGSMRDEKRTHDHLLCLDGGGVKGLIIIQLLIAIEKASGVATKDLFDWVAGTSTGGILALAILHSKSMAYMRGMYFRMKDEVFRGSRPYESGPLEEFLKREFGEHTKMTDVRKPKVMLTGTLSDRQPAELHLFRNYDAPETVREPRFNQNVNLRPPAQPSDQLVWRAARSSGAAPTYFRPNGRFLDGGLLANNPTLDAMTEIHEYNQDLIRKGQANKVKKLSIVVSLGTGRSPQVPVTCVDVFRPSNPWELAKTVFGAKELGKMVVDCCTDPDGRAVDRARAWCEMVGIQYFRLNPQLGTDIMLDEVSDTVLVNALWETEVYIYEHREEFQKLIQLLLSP
Nature of the experiment: In vitro Group VIA iPLA2 mixed micelle assay. As to conditions: for inhibition at 0.091 mole fraction: read-out: iPLA2 inh, percent inhibition; for Inhibition of GVIA PLA2: at highest dose; for iPLA2 inh, XI(50): Table 3. As for the experimental part: as §1, §2

The target of experiment [3] is T3, GV sPLA2 (Homo sapiens, UniProt P39877).
T3 sequence (P39877 21-138): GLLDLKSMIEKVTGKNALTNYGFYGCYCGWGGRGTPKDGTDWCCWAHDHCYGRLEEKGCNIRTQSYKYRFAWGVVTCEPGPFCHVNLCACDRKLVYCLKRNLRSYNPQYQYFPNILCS
Description: GV sPLA2 activity assay. As to conditions: for inhibition at 0.091 mole fraction: read-out: sPLA2 inh., percent inhibition; for efficacy against sPLA2: at 0.091 mole fraction. The protocol:
GV sPLA2 activity was measured in a similar assay. The final assay buffer was composed of 50 mM Tris-HCl (pH 8.0) and 5 mM CaCl2. Each assay was performed in 500 μL total volume made up of 100 μL of 5× substrate solution (20 μL of 10 mM Triton X-100 and 80 μL assay buffer), 390 μL assay buffer, 10 μL GV sPLA2 solution (1 μL of 40 ng/μL stock and 9 μL assay buffer), and 5 μL of DMSO or 2-oxoamide in DMSO. The 5× substrate solution was prepared by drying down the phospholipids (in organic solvent) with N2. The appropriate volume of 10 mM Triton X-100 was added, heated and vortexed until clear. Then assay buffer was added to make a 5× substrate solution. The final mixed micelles were at 400 μM Triton X-100 and 100 μM DPPC (of which 100,000 cpm of ^14C-DPPC).

Data on 23 compounds can be found in patent publication US20080319065A1, “Systemic and Intrathecal Effects of a Novel Series of Phospholipase A2 Inhibitors on Hyperalgesia and Spinal Pge2 Release” (The Regents of the University of California, priority 2005, published 2008).

Entries after “also recorded” stand apart in the source; their conditions may differ.

Consider `CCOC(=O)CCNC(=O)C(=O)CC` [AX104], for which the inhibition (usually the drop in the measured response relative to a control, in per cent) at 0.091 mole fraction in experiment [1] was 44%; in experiment [2] it was 50.6%; in experiment [3], 58.8%.
Consider `CCC[C@@H](/C=C/C(=O)OCC)NC(=O)C(=O)CC` [AX093], for which the “cPLA2 inh, XI(50)” value in experiment [1] is reported as “XI(50) =0.031 ± .011 mole fraction”. The inhibition at 0.091 mole fraction stood at 66.5% in experiment [2] and 78.3% in experiment [3].
In the same order, the values of `CCOCCCCNC(=O)C(=O)CC` [AX081] are “XI(50) =0.018 ± .016 mole fraction”, 50.9% and 76.5%.
With `NC(=O)C(=O)CCCCc1ccccc1` [AX015], in experiment [1], the “inhibition of GIVA PLA2 (cPLA2), in words” value was “neither exhibits significant inhibition; also recorded: no significant activity” and the “Inhibition of GIVA PLA2” value is reported as “ND (negligible inhibition (0-25%) at highest dose)”. For the same compound, in experiment [2], the “inhibition of GVIA PLA2 (iPLA2), in words” value is “neither exhibits significant inhibition; also recorded: no significant activity” and the “Inhibition of GVIA PLA2” value is reported as “ND (negligible inhibition (0-25%) at highest dose)”. The “efficacy against sPLA2” value in experiment [3] is on record as 45.3%.
As for `CCCC[C@H](NC(=O)C(=O)CC)C(=O)NCC(=O)OC(C)(C)C` [AX121], the values for the inhibition at 0.091 mole fraction in experiment [1], in experiment [2] and in experiment [3] were 72%, 89.6% and 58.5%, respectively.
`CCCCC(=O)CCCNC(=O)C(=O)CC` [AX082]: the inhibition at 0.091 mole fraction is 31.8% in experiment [1] and 7.4% in experiment [3].
Take `CC/C=C\CC(=O)C(=O)NCCCC(=O)OC(C)(C)C` [AX055]: in experiment [1], the “cPLA2 inh, XI(50)” value is recorded as “XI(50) =0.014 ± .009 mole fraction”. Moreover, the “iPLA2 inh, XI(50)” value in experiment [2] was “XI(50) =0.054 ± .004 mole fraction”. For the same compound, in experiment [3], the inhibition at 0.091 mole fraction amounted to 85.3%.
On to `CCNC(=O)C(=O)CC` [AX009], for which, in experiment [1], the “inhibition of GIVA PLA2 (cPLA2), in words” value was “no detectable inhibition of GIVA PLA2” and the “Inhibition of GIVA PLA2” value was “ND (negligible inhibition (0-25%) at highest dose)”. Besides, in experiment [2], the “inhibition of GVIA PLA2 (iPLA2), in words” value is “limited inhibition of GVIA PLA2” and the “Inhibition of GVIA PLA2” value was “LD (limited inhibition (25-50%) at highest dose)”.
Regarding `CCOC(=O)CCCNC(=O)C(=O)CCc1ccc(OCC)cc1` [AX090], the “cPLA2 inh, XI(50)” value in experiment [1] is listed as “XI(50) =0.050 ± .002 mole fraction”. Besides, the figures for the inhibition at 0.091 mole fraction in experiment [2] and in experiment [3] were 67.3% and 51.7%, respectively.
As to `CCC[C@@H](CCCCC(=O)OCC)NC(=O)C(=O)CC` [AX065], the inhibition at 0.091 mole fraction in experiment [1] is 61.8%; in experiment [3] it was 23.2%. The “iPLA2 inh, XI(50)” value in experiment [2] is recorded as “XI(50) =0.054 ± .016 mole fraction”.
Consider `CCOC(=O)CNC(=O)C(=O)CC` [AX114], for which the inhibition at 0.091 mole fraction is 73.7% in experiment [1], 61.6% in experiment [2] and 99.8% in experiment [3].
In the case of `CCC[C@@H](COCC(=O)OCC)NC(=O)C(=O)CC` [AX128], the inhibition at 0.091 mole fraction was 52.3% in experiment [1], 92.8% in experiment [2] and 80.6% in experiment [3].
Regarding `CCC(=O)C(N)=O` [AX001], in experiment [1], the “inhibition of GIVA PLA2 (cPLA2), in words” value is given as “neither exhibits significant inhibition” and the “Inhibition of GIVA PLA2” value is given as “ND (negligible inhibition (0-25%) at highest dose)”. In addition, in experiment [2], the “inhibition of GVIA PLA2 (iPLA2), in words” value is “neither exhibits significant inhibition” and the “Inhibition of GVIA PLA2” value is “ND^a (negligible inhibition (0-25%) at highest dose)”.
As to `C=CCOC(=O)CCCNC(=O)C(=O)CC` [AX126], the inhibition at 0.091 mole fraction in experiment [1] is 52.9%; in experiment [2], 63.2%; in experiment [3] it was 37.9%.
Regarding `CCOC(=O)CCCCNC(=O)C(=O)CC` [AX102], the figures for the inhibition at 0.091 mole fraction in experiment [1], in experiment [2] and in experiment [3] were 30.6%, 35.3% and 47.1%, respectively.
In the same order, the values of `CCC(=O)C(=O)NCCCCC(=O)OC(C)(C)C` [AX105] are 73.8%, 61.7% and 96.3%.
For `CCOC(=O)c1ccc(NC(=O)C(=O)CC)cc1` [AX091], the “cPLA2 inh, XI(50)” value in experiment [1] is given as “XI(50) =0.029 ± .016 mole fraction”. For the same compound, the inhibition at 0.091 mole fraction in experiment [2] was found to be 14.3%; in experiment [3], 66.5%.
In the case of `CCNC(=O)C(=O)CC` [AX002], in experiment [1], the “inhibition of GIVA PLA2 (cPLA2), in words” value is on record as “no detectable inhibition of GIVA PLA2” and the “Inhibition of GIVA PLA2” value is “ND (negligible inhibition (0-25%) at highest dose)”. For the same compound, in experiment [2], the “inhibition of GVIA PLA2 (iPLA2), in words” value is “limited inhibition of GVIA PLA2” and the “Inhibition of GVIA PLA2” value is recorded as “LD^b (limited inhibition (25-50%) at highest dose)”.
Regarding `CCC(=O)C(=O)NCCCC(=O)OCc1ccccc1` [AX116], the inhibition at 0.091 mole fraction is 34.8% in experiment [1], 10.7% in experiment [2] and 57.5% in experiment [3].
Regarding `CC/C=C\CC(=O)C(=O)NCCCC(=O)OCC` [AX110], the figures for the inhibition at 0.091 mole fraction in experiment [1], in experiment [2] and in experiment [3] were 69.9%, 52.8% and 96.6%, respectively.
With `CCC(=O)C(=O)NCCC(=O)OC(C)(C)C` [AX113], the inhibition at 0.091 mole fraction in experiment [1] was 79.2%; in experiment [2] it was 54%; in experiment [3], 100%. Further, the “efficacy against sPLA2” value in experiment [3] is “about 100%”.
As to `CCC[C@H](NC(=O)C(=O)CC)C(=O)NCC(=O)OCC` [AX127], the inhibition at 0.091 mole fraction is 72.6% in experiment [1], 93.9% in experiment [2] and 63.1% in experiment [3].
The matching figures for `CCCC[C@@H](COCC(=O)OC(C)(C)C)NC(=O)C(=O)CC` [AX122]: 43.6%, 81% and 57.2%.
